In data set [1] the test system is NCI-H716 cells. Briefly: GLP-1 synthesis and secretion in NCI-H716 cells. Type of data set: cell-based, human. The following applies: for GLP-1 secretion by CA7S extracted from cecal contents of SG mice: 500 μM; for GLP-1 secretion by CA7S extracted from cecal contents of SG mice / total GLP-1 (GLP-1 synthesis): vs DMSO control; for GLP-1 secretion: in vitro; for total GLP-1 (GLP-1 synthesis): media + cell lysates. How it is done:
GLP-1 synthesis and secretion were measured in matrigel-polarized NCI-H716 cells. […] (FIG. 28B)
Treatment with compounds. […] The cells were allowed to grow for 2 days in complete RPMI media. […] The concentration of DMSO was kept constant throughout the treatments and used as a negative control. Cells were incubated at 37° C. in an atmosphere of 5% CO2 for 2 hours. After the incubation period, cell culture media was collected in Eppendorf tubes containing 1% trifluoroacetic acid (TFA, Sigma) in sterile purified water (GenClone) to make a final TFA concentration of 0.1% and frozen at −80° C. for further GLP-1 measurements. Cells on cell culture plates were placed on ice and gently washed with PBS (GenClone). Cells used for GLP-1 measurements were treated with ice-cold cell lysis solution of 1% TFA, 1N hydrochloric acid, 5% formic acid, and 1% NaCl (all from Sigma), scraped off of the Matrigel coating, and collected in 96-well plates for peptide purification. Lysates were stored at −80° C. for further analysis.
GLP-1 measurement. Total GLP-1 peptide measurements were performed using the GLP-1 EIA Kit (Sigma, Cat. No. RAB0201) according to manufacturer's instructions. Cell culture media and cell lysates were subjected to peptide purification using Sep Pak C18 Classic columns (Waters Corporation, Milford, Mass.). The column was pretreated with a solution of 0.1% TFA in 80% isopropyl alcohol (EMD Millipore) and equilibrated with 0.1% TFA in water. Cell culture media and cell lysates were loaded onto the column and washed with […]. The peptides were eluted in […]. The eluate was concentrated by drying under vacuum and resuspended in 0.1% TFA in water. 0.1% TFA in water was used as ‘blank’ for cell culture media and purified cell lysate ELISAs. Excess samples were stored at −80° C. for later analyses. Total GLP-1 amounts in the cell culture media (secreted) and cell lysates were calculated using a standard curve provided in the EIA kit.

In data set [2] the test system is Caco-2 cells. Description: Caco-2 cell viability assay (CellTiter-Glo, ATP luminescence). Type of data set: cell-based. The following applies: concentrations up to 3 mM. How it is done:
Compounds were also tested for toxicity using Caco-2 cells, a human intestinal epithelial cancer cell line. Caco-2 cells were incubated with compounds for 16 hours and cell death was determined using a luminescence assay measuring ATP levels as a readout for cell viability.
Cell viability assay. Caco-2 cells were treated with compounds diluted in DMSO in complete MEM media. The concentration of DMSO was kept constant and used as a negative control. Cells were incubated with compounds overnight at 37° C. in an atmosphere of 5% CO2. The next day, cell viability was measured using CellTiter-Glo Luminescent Cell Viability Assay from Promega Corporation according to manufacturer's instructions. Luminescence was measured using the SpectraMax M5 plate reader (Molecular Devices, San Jose, Calif.) at the ICCB-Longwood Screening Facility at Harvard Medical School. Luminescence was normalized to DMSO control and percentage relative luminescence was calculated compared to DMSO control.
For orientation: In ATP-based viability assays light output follows the ATP content of the culture.

Data set [3] can be described thus: Stability after incubation in buffer at physiological pHs (UPLC-MS). It is filed as physicochemical. The settings on record: 37° C. in buffer at physiological pHs.
Data set [4] deals with T1, human TGR5 (Homo sapiens, UniProt Q8TDU6).
T1 construct: expressed in transfected cells; host or cells: HEK293T
T1 sequence (Q8TDU6 1-330): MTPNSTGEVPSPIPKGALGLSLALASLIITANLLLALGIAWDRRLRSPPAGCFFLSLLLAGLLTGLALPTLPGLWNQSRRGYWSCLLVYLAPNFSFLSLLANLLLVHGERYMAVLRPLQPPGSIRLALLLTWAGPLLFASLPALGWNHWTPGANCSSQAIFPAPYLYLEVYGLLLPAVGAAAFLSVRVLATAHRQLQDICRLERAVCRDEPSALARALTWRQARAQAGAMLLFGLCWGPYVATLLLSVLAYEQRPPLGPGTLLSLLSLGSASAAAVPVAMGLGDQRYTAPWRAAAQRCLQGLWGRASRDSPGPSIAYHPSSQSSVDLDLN
Description: Luciferase reporter assay for human TGR5 activation in HEK293T cells overexpressing human TGR5. It is filed as cell-based. The settings on record: for TGR5 activation: HEK293T cells overexpressing human TGR5, luminescence readout; for EC50: HEK293T cells overexpressing human TGR5. As for the experimental part: Human TGR5 was overexpressed in HEK93T cells along with a luciferase-based TGR5 reporter plasmid. Cells were then incubated with different concentrations of compounds overnight, and TGR5 activation was measured as a luminescence readout.
Plasmids and transient transfections. Human TGR5 was cloned using cDNA from human Caco-2 cells as template and a forward primer with an EcoRIrestriction-site (5′-[…]-3′) and a reverse primer with a XhoI-site (5′-[…]-3′). The PCR product was cloned into the pCDNA 3.1+plasmid (Promega Corporation, Madison, Wis.) and transfected at a concentration of 0.4 μg/ml of media. For luciferase reporter assays for TGR5 activation, the pGL4.29[luc2P/CRE/Hygro] plasmid (Promega Corporation), and the pGL4.74[hRluc/CMV] plasmid (Promega Corporation) were used at concentration of 2 μg/ml and 0.05 μg/ml of media respectively. All plasmids were transfected using Opti-MEM (Gibco) and Lipofectamine 2000 (Invitrogen, Life Technologies, Grand Island, N.Y., USA) according to manufacturer's instructions. Plasmid transfection were performed in antibiotic-free media (MEM for HEK293T and RPMI for Matrigel-attached NCI-H716 cells) with 10% FBS. After overnight incubation, compounds were added in complete media and incubated overnight. Cells were harvested the next day for luciferase assay.
Luciferase reporter assay. Luminescence was measured using the Dual-Luciferase Reporter Assay System (Promega Corporation) according to manufacturer's instructions. Cells were washed gently with PBS and lysed in PLB from the kit. Matrigel-attached cells were scraped in PLB. Luminescence was measured using the SpectraMax M5 plate reader (Molecular Devices, San Jose, Calif.) at the ICCB-Longwood Screening Facility at Harvard Medical School. Luminescence was normalized to Renilla luciferase activity and percentage relative luminescence was calculated compared to DMSO control.
For orientation: A reporter such as luciferase makes a cellular process visible.

Data set [5] concerns DIO mice. Description: Acute treatment of DIO mice via duodenal and rectal catheters: GLP-1 and blood glucose. It is filed as in vivo, mouse. The following applies: HFD-fed (DIO) mice, 1 mg, vs PBS; for systemic GLP-1 levels in vivo: within 15 minutes.
Description: Next, the ability of CA7S to stimulate GLP-1 secretion and improve hyperglycemia in vivo was evaluated. DIO mice were treated with either CA7S or PBS via duodenal and rectal catheters (FIG. 17A).
Data set [6] deals with NCI-H716 cells. Description: Intracellular calcium levels in NCI-H716 cells (L-cells). Type of data set: cell-based, human. The settings on record: NCI-H716 cells (L-cells) in vitro.
The mark [7] stands for this setting: listed as cholic acid 7-sulfate.
[8] abbreviates: listed as Cholic acid 7-sulfate.
[9] abbreviates: HFD-fed mice, acute cholic acid 7-sulfate treatment.

The values below come from patent US12419897B2 (President and Fellows of Harvard College, priority 2018, dated 2025).

Molecules are shown by their SMILES. Entries after “also recorded” stand apart in the source; their conditions may differ.

As to `C[C@H](CCC(=O)O)[C@H]1CC[C@H]2[C@@H]3[C@H](OS(=O)(=O)O)C[C@@H]4C[C@H](O)CC[C@]4(C)[C@H]3C[C@H](O)[C@]12C` [CA7S, cholic acid 7-sulfate], the “GLP-1 secretion by CA7S extracted from cecal contents of SG mice” value is reported as “also induced GLP-1 secretion in vitro” in data set [1] and “exhibit activity inducing GLP-1 secretion” in data set [1] (setting [7]). Moreover, the entries for the “GLP-1 secretion after siRNA-mediated knockdown of TGR5” value in data set [1] and in data set [1] (setting [7]) were “abolished” and “abolished GLP-1 secretion”, respectively. The GLP-1 secretion result was “induced GLP-1 secretion to a similar degree as TDCA in a dose-dependent manner” in data set [1] and “induces GLP-1 secretion in vitro better than the known GLP-1 inducer TDCA” in data set [1] (setting [8]). In addition, the figures for the “viability of Caco-2 cells” value in data set [2] and in data set [2] (setting [8]) were “does not affect the viability” and “no toxicity”, respectively. The pH stability entry is reported as “stable at physiological pHs” in data set [3] and “stable in a wide range of pHs” in data set [3] (setting [8]). Besides, the TGR5 activation result in data set [4] is “activated human TGR5 in a dose-dependent manner”; in data set [4] (setting [8]) it was “induces TGR5 activation”. The “blood glucose levels in vivo” value in data set [5] (within 15 min) is on record as “reduced blood glucose levels”. Moreover, the “systemic GLP-1 levels in vivo” value is given as “increased systemic GLP-1 levels” in data set [5] and “induced GLP-1 levels” in data set [5] (setting [7]). In addition, the intracellular calcium levels entry in data set [6] is “dose-dependent increase in calcium levels”; in data set [6] (setting [8]), “increased calcium levels”. Besides, the “Cholic acid 7-sulfate concentration (mean ± SEM), Cecum” value under setting [9] is given as 2577 ± 185.3 pmol/mg. For the same compound, under setting [9], the “Cholic acid 7-sulfate concentration (mean ± SEM), Hepatic portal vein” value was 6.128 ± 2.111 pmol/mg. Moreover, the “CA7S in cecal contents, on average” value (administration of 1 mg, duodenal and rectal catheters) is on record as 2500 pmol/mg wet mass. For the same compound, the “cholic acid 7-sulfate in the cecum” value (dosing with 1 mg) is roughly 2500 µM. The “amounts in systemic circulation and portal vein (gut restriction)” value (ectopic introduction in mice, listed as cholic acid 7-sulfate) was “only minor amounts”.

With `C[C@H](CCC(=O)O)[C@H]1CC[C@H]2[C@@H]3[C@H](O)C[C@@H]4C[C@H](O)CC[C@]4(C)[C@H]3C[C@H](O)[C@]12C` [CA, cholic acid], the GLP-1 secretion result was “had no effect on GLP-1 secretion” in data set [1] and “had no effect” in data set [1] (listed as cholic acid).

A word on the EC50: it is the concentration needed to bring the measured effect to its halfway point. Higher therefore signals lower potency in that assay. Regarding `C[C@H](CCC(=O)O)[C@H]1CC[C@H]2[C@@H]3[C@H](NS(=O)(=O)O)C[C@@H]4C[C@H](O)CC[C@]4(C)[C@H]3C[C@H](O)[C@]12C` [Compound 1], in data set [1], the GLP-1 secretion result is “induce GLP-1 synthesis and secretion”; the “total GLP-1 (GLP-1 synthesis)” value was “increased total GLP-1; also recorded: induce GLP-1 synthesis and secretion”. Also, in data set [4], the EC50 was found to be 2400 nM and the TGR5 activation result was “induced TGR5 activation in a dose-dependent manner; also recorded: activate TGR5”.

Take `C[C@H](CCC(=O)O)[C@H]1CC[C@H]2[C@@H]3[C@H](NS(=O)(=O)O)C[C@@H]4C[C@H](O)CC[C@]4(C)[C@H]3CC[C@]12C` [Compound 2]: in data set [1], the GLP-1 secretion entry was “induced GLP-1 secretion; also recorded: induce GLP-1 synthesis and secretion”; the “total GLP-1 (GLP-1 synthesis)” value is “increased total GLP-1; also recorded: induce GLP-1 synthesis and secretion”. Further, in data set [4], the half-maximal effective concentration (EC50) was determined as 1700 nM and the TGR5 activation entry is given as “induced TGR5 activation in a dose-dependent manner; also recorded: activate TGR5”.

Turning to `C[C@H](CCC(=O)O)[C@H]1CC[C@H]2[C@@H]3[C@H](NS(=O)(=O)O)[C@H](O)[C@@H]4C[C@H](O)CC[C@]4(C)[C@H]3CC[C@]12C` [Compound 3], in data set [1], the GLP-1 secretion result was “induced GLP-1 secretion; also recorded: induce GLP-1 synthesis and secretion”; the “total GLP-1 (GLP-1 synthesis)” value was “increased total GLP-1; also recorded: induce GLP-1 synthesis and secretion”. The TGR5 activation result in data set [4] is reported as “induced TGR5 activation in a dose-dependent manner; also recorded: activate TGR5”.

Regarding `C[C@H](CCC(=O)O)[C@H]1CCC2[C@H]3C(CC[C@@]21C)[C@@]1(C)CC[C@@H](O)C[C@H]1C[C@H]3S(=O)(=O)O` (stereo partly drawn) [Compound 6, (4R)-4-((3R,5S,7R,8R,10S,13R,17R)-3-hydroxy-10,13-dimethyl-7-sulfohexadecahydro-1H-cyclopenta[a]phenanthren-17-yl)pentanoic acid], in data set [1], the GLP-1 secretion result was “induced an increase in GLP-1 synthesis and secretion”; the “total GLP-1 (GLP-1 synthesis)” value was “increased total GLP-1; also recorded: induced an increase in GLP-1 synthesis and secretion”. In data set [4], the TGR5 activation entry is recorded as “induced TGR5 activation in a dose-dependent manner; also recorded: activated TGR5”.

Turning to `C[C@H](CCC(=O)NCCS(=O)(=O)O)[C@H]1CC[C@H]2[C@@H]3CC[C@@H]4C[C@H](O)CC[C@]4(C)[C@H]3C[C@H](O)[C@]12C` [TDCA, tauro-deoxycholic acid], in data set [1], the “GLP-1 secretion after siRNA-mediated knockdown of TGR5” value is reported as “abolished”.
